In US20220372040A1, “METTL3 MODULATORS” (Accent Therapeutics, Inc., priority 2020, published 2022):
Like-named read-outs stand apart in the source and are kept apart here.

What was measured:
METTL16 = biological target: T1, METTL16 (Homo sapiens, UniProt Q86W50); test: METTL16 assay (3H-SAM flashplate scintillation); type: biochemical; details: METTL16 100 nM, RNA 50 nM, 3H-SAM 200 nM, SAM 800 nM, 20 min
T1 sequence (Q86W50 1-562): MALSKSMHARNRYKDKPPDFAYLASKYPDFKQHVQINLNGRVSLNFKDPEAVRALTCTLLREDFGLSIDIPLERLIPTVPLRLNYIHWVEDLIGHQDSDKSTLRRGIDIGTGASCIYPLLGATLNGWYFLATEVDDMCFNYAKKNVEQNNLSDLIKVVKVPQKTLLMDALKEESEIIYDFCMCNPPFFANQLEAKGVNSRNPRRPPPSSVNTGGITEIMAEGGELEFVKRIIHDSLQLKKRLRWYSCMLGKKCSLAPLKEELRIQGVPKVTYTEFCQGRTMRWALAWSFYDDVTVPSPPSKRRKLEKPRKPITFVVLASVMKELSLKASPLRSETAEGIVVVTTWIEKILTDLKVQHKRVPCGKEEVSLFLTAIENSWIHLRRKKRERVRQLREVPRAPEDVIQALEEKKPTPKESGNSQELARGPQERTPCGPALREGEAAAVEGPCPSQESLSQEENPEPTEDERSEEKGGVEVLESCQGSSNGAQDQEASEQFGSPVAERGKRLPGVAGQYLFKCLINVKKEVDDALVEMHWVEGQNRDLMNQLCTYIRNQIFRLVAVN
Protocol: Assays were performed in a 25 μl-volume in 384-well V-bottom polypropylene microplates (Greiner Bio-One, cat. No. 781280) at ambient temperature. Optimized 1× assay buffer was 20 mM HEPES pH 7.5, 50 mM KCl, 1 mM DTT, 0.01% Tween, 0.01% BSG, 0.004 U/μl RNAseOUT (cat. No. 10777019, ThermoFisher Scientific, Waltham, Mass.). For compound screening METTL16 (final concentration, f.c.=100 nM) was added using a Multidrop Combi (ThermoFisher Scientific, Waltham, Mass.) and preincubated for 5 min. Reactions were started by adding 3′ biotinylated RNA ([…]-biotin) (f.c.=50 nM), 3H-SAM (f.c.=200 nM) and non-radiolabeled SAM (f.c.=800 nM) substrates. Reactions proceeded for 20 minutes and were quenched with excess non-radioactive SAM (f.c.=100 μM). The reactions were then transferred to streptavidin-coated flashplates and incubated for 2 hours at 25° C. Following two washing cycles with 0.1% Tween-20, the plates were sealed and read on a TopCount (PerkinElmer, Waltham, Mass.) plate-based scintillation counter. For determination of kinetic parameters, reaction times were optimized so that measurements were taken during the initial velocity phase of the reaction.

MOLM-13 cells = test: MOLM-13 96 Hour cell proliferation assay (Cell Titer-Glo); type: cell-based; details: Homo sapiens
Protocol: MOLM-13 96 Hour Cell Proliferation Assay
MOLM-13 (DSMZ) cells were seeded at 600 cells per well in a volume of 44 μL in a Greiner Bio-One CELLSTAR™ 384 Well Polystyrene Cell Culture clear bottom microplate in RPMI 1640 media containing 10% fetal bovine serum using a Multidrop Combi (ThermoFisher Scientific). Cells were incubated overnight at 37° C. in a humidified tissue culture incubator. To prevent evaporation or to reduce edge effect, add 50 μL or more H2O to an empty plate, cover, and place on top of the cell plates. The Mosquito® HTS Liquid Handler was used to make a compound/media intermediate plate by aliquoting 1 μL of compound from the initial compound dilution plate (concentrations ranging from 10.0 mM to 38.0 nM in 100% DMSO) into Bio-One 384-well polypropylene conical bottom microplate containing 49 μL of media containing the appropriate serum (50-fold dilution, 2% DMSO, compound concentrations ranging from 200.0 μM and […]). The Apricot liquid handling system was used to transfer 6.2 μL compounds from the intermediate plate into the seeding plate containing 44 μL cells (8-fold dilution spanning concentrations 25.0 μM to […], 0.25% DMSO final), and placed in a humidified tissue culture incubator at 37° C. After 96 hours, 25 μL of Cell Titer-Glo reagent (Promega) was added to each well using an Integra liquid handling system. The plate was protected from light using TopSeal-A (Black) film over the entire plate, added White Bottom seal film on the bottom of the entire plate for a better reading on the Envision, and placed on an IKA plate shaker for at 300 rpm for 10 minutes at room temperature. The plate was read on an EnVision plate reader (Perkin Elmer) using the Ultra Sensitive Luminescence protocol. Data analysis was performed by normalizing the raw luminescence units to an average of the positive control values for staurosporine (100% cell death) and the negative control values for DMSO (0% cell death). An IC50 was calculated using a 4-parameter logistic nonlinear regression model in GraphPad Prism.

METTL3/METTL14 = METTL3/METTL14 (Homo sapiens, UniProt Q86U44); test: METTL3-14 standard enzyme assay (3H-SAM flashplate scintillation); type: biochemical; details: METTL3/METTL14 2.5 nM, RNA 100 nM, 3H-SAM 100 nM, 30 min
How it was run: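 Radiometric methylation readout: biotinylated RNA substrate UCUGGACUAAA and 3H-SAM, each 100 nM final, reacted 30 min at ambient temperature with 2.5 nM enzyme complex after 5 min compound preincubation (HEPES pH 7.5 buffer, KCl, MgCl2, DTT). Excess unlabelled SAM (15 μM) stopped reactions before streptavidin flashplate capture.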

PRMT5-MEP50 = PRMT5-MEP50 (Homo sapiens, UniProt O14744); test: PRMT5 assay (3H-SAM flashplate scintillation); type: biochemical; details: PRMT5-MEP50 2.5 nM, histone H4 peptide 100 nM, 3H-SAM 250 nM, 60 min
How it was run: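 Radiometric methyltransferase read-out: after 60 min reaction, excess unlabelled SAM (15 μM) stops turnover and biotinylated H4 peptide (100 nM) carrying 3H-methyl from 250 nM 3H-SAM is captured on streptavidin flashplates (2 h, 25° C) for scintillation counting. Enzyme, 2.5 nM PRMT5-MEP50, was preincubated 5 min with compound in pH 8.0 Tris buffer with DTT and Tween.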

METTL1/WDR4 = METTL1/WDR4 (Homo sapiens, UniProt Q9UBP6); test: METTL1 assay (3H-SAM flashplate scintillation); type: biochemical
How it was run: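 Radiometric methyltransfer by METTL1/WDR4 (6.25 nM f.c., 5 min preincubation) at ambient temperature in HEPES pH 7.5, KCl, MgCl2, DTT; started with 25 nM 3′-biotinylated RNA and 60 nM 3H-SAM, run 20 min, quenched with 15 μM cold SAM. Product captured on streptavidin flashplates (2 h, 25° C), counted by scintillation.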

Chain of PRMT5-MEP50 (O14744 whole entry): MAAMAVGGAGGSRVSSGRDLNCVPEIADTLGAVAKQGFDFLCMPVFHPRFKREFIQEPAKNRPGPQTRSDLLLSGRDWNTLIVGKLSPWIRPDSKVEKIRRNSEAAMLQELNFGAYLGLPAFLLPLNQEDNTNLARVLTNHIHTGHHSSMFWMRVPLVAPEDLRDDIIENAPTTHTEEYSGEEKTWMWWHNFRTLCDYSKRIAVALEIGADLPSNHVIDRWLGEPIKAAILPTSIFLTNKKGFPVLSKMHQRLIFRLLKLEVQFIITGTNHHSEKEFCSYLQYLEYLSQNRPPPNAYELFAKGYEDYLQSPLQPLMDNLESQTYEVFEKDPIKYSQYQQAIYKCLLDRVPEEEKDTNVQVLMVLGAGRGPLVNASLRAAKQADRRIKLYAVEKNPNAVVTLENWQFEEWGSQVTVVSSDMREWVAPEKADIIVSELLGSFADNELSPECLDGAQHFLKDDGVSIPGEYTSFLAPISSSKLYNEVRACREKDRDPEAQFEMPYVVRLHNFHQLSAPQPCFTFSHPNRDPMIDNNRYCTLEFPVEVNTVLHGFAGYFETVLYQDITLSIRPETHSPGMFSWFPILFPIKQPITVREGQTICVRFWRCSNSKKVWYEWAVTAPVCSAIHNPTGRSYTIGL
Chain of PRMT5-MEP50 (Q9BQA1 whole entry partner): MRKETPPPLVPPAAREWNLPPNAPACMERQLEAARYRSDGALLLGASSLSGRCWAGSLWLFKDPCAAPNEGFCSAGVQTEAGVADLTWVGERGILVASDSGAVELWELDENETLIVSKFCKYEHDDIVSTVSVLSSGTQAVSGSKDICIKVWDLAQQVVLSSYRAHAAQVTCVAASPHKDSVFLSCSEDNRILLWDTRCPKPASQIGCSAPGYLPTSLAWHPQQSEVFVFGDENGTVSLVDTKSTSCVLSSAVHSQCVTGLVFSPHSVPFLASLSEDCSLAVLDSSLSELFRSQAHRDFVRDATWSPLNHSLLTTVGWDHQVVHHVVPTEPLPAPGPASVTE
Chain of METTL3/METTL14 (Q86U44 whole entry, species assumed): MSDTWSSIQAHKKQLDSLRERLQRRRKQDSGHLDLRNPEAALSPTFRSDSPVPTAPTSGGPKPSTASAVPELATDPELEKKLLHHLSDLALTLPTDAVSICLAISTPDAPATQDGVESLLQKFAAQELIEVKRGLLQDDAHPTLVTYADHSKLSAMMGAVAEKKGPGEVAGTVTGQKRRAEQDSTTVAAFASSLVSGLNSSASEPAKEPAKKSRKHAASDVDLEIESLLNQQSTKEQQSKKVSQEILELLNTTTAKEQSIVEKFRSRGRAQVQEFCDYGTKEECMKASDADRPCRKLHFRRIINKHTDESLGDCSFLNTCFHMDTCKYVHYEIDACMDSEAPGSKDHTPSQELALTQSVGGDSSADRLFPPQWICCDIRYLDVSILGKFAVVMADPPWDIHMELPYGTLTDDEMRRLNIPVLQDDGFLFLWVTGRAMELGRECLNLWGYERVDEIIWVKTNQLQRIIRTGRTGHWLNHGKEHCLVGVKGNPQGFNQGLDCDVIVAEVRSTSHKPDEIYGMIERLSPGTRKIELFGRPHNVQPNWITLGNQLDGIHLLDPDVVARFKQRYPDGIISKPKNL
Chain of METTL3/METTL14 (Q9HCE5 whole entry partner, species assumed): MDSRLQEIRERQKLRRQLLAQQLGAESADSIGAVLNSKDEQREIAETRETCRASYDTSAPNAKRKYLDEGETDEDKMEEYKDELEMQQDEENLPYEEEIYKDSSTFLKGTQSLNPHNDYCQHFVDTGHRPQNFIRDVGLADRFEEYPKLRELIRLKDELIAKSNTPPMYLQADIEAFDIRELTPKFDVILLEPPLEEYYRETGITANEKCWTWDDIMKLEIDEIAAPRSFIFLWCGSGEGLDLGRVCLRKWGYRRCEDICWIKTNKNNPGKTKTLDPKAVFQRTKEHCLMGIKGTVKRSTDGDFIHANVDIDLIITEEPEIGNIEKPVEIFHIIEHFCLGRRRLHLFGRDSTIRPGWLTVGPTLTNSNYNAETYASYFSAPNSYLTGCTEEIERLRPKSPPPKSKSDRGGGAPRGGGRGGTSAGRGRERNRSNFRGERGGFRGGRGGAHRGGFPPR
Chain of METTL1/WDR4 (Q9UBP6 whole entry, species assumed): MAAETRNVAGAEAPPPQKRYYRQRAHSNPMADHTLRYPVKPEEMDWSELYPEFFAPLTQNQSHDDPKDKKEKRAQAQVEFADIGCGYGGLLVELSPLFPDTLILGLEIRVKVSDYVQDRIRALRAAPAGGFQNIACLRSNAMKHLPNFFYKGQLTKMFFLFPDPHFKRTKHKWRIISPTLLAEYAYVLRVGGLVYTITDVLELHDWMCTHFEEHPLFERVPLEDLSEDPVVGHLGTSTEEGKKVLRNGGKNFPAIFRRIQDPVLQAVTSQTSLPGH
Chain of METTL1/WDR4 (P57081 whole entry partner, species assumed): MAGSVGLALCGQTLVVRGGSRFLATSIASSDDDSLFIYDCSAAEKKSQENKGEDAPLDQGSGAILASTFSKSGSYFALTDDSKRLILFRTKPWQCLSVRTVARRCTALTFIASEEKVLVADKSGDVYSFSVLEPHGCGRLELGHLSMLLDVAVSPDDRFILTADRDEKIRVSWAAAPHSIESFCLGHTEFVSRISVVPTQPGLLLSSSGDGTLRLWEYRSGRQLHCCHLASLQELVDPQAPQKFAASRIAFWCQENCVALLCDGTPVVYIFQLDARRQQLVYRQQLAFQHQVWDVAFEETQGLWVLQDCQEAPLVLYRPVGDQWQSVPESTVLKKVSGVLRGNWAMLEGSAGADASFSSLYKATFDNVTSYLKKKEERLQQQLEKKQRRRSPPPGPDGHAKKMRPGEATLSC

IC50 (METTL16) [nM]	IC50 (MOLM-13 cells) [nM]	IC50 (METTL3/METTL14) [nM]	IC50 (PRMT5-MEP50) [nM]	Compound	IC50 (METTL1/WDR4) [nM]	IC50 (METTL1/WDR4; METTL1/WDR4 6.25 nM, RNA 25 nM, 3H-SAM 60 nM, 20 min, read-out: METTL1 IC50) [nM]
–	< 1000	< 10	–	CCc1cc(N(C)C2CC2)c2ccc(OCc3cncc(-n4cc([C@@H]5CCCO5)c5c(N)ncnc54)c3)cc2n1 [Compound I-167]	–	–
–	< 1000	< 10	> 1000	CN(CCO)c1ccc2ccc(OCc3cncc(-n4cc(-c5ccn(C)n5)c5c(N)ncnc54)c3)cc2n1 [Compound I-169]	–	–
–	< 1000	< 10	> 1000	CCc1cc(NCCCN(C)C)c2ccc(OCc3cncc(-n4cc(-c5ccn(C)n5)c5c(N)ncnc54)c3)cc2n1 [Compound I-170]	–	–
–	1000 to 10000	10 to 100	> 1000	CS(=O)(=O)c1cn(-c2cncc(COc3ccc4ccc(N5CCC5)nc4c3)c2)c2ncnc(N)c12 [Compound I-185]	–	–
–	< 1000	< 10	> 1000	Cn1ccc(-c2cn(-c3cncc(COc4ccc5ccc(N6CC(F)C6)nc5c4)c3)c3ncnc(N)c23)n1 [Compound I-192]	–	–
–	1000 to 10000	< 10	> 1000	Cn1ccc(-c2cn(-c3cncc(COc4ccc5ccc(N6CC(O)C6)nc5c4)c3)c3ncnc(N)c23)n1 [Compound I-193]	–	–
–	1000 to 10000	< 10	> 1000	Cn1ccc(-c2cn(-c3cncc(COc4ccc5ccc(N6CC(F)(F)C6)nc5c4)c3)c3ncnc(N)c23)n1 [Compound I-212]	–	–
–	< 1000	< 10	> 1000	Cn1ccc(-c2cn(-c3cncc(COc4ccc5ccc(N6CC(N)C6)nc5c4)c3)c3ncnc(N)c23)n1 [Compound I-213]	–	–
–	1000 to 10000	< 10	> 1000	Cn1ccc(-c2cn(-c3cncc(COc4ccc5ccc(N6CC(=O)C6)nc5c4)c3)c3ncnc(N)c23)n1 [Compound I-217]	–	–
–	< 1000	< 10	–	CCc1cc(NCCOC)c2c(F)cc(CCc3cncc(-n4cc(-c5ccn(C)n5)c5c(N)ncnc54)c3)cc2n1 [Compound I-228]	–	–
–	< 1000	< 10	–	CCc1cc(NCCOC)c2c(F)cc(OCc3cncc(-n4cc(-c5ccn(C)n5)c5c(N)ncnc54)c3)cc2n1 [Compound I-229]	–	–
–	< 1000	< 10	> 1000	CCc1cc(NCCOC)c2ccc(OCc3cncc(-n4cc(COC)c5c(N)ncnc54)c3)cc2n1 [Compound I-231]	–	–
–	< 1000	10 to 100	> 1000	CCc1cc(N(C)C)c2ccc(OCc3cncc(-n4ccc5c(N)ncnc54)c3)cc2n1 [Compound I-232]	–	–
–	1000 to 10000	< 10	–	COCc1cn(-c2cncc(COc3ccc4ccc(N5CCC5)nc4c3)c2)c2ncnc(N)c12 [Compound I-237]	–	–
–	≥ 10000	< 10	> 1000	CC(=O)c1cn(-c2cncc(COc3ccc4ccc(N5CCC5)nc4c3)c2)c2ncnc(N)c12 [Compound I-238]	–	–
–	1000 to 10000	< 10	> 1000	Cc1nc(-c2cn(-c3cncc(COc4ccc5ccc(N6CCC6)nc5c4)c3)c3ncnc(N)c23)co1 [Compound I-239]	–	–

The remaining lines, values behind:

Compound	IC50 (METTL16) [nM]	IC50 (MOLM-13 cells) [nM]	IC50 (METTL3/METTL14) [nM]	IC50 (PRMT5-MEP50) [nM]	IC50 (METTL1/WDR4) [nM]	IC50 (METTL1/WDR4; METTL1/WDR4 6.25 nM, RNA 25 nM, 3H-SAM 60 nM, 20 min, read-out: METTL1 IC50) [nM]
Cc1cc(N)c2ccc(OCc3cncc(-n4ccc5c(N)ncnc54)c3)cc2n1 [Compound I-48]	> 1000	≥ 10000	100 to 1000	> 1000	–	–
Nc1ncnc2c1c(Cl)cn2-c1cncc(COc2ccc3ccc(NCC4CC4)nc3c2)c1 [Compound I-55]	> 1000	1000 to 10000	100 to 1000	> 1000	–	–
CNc1ccc2ccc(OCc3cncc(-n4cc(C5CCCO5)c5c(N)ncnc54)c3)cc2n1 (stereo not shown) [Compound I-97]	–	< 1000	< 10	> 1000	> 1000	–
CC(C)c1cc(N2CCC2)c2ccc(OCc3cncc(-n4ccc5c(N)ncnc54)c3)cc2n1 [Compound I-99]	–	< 1000	< 10	> 1000	–	> 1000
CCc1cc(N2CCN(C)CC2)c2ccc(OCc3cncc(-n4ccc5c(N)ncnc54)c3)cc2n1 [Compound I-107]	–	< 1000	< 10	> 1000	–	–
CCc1cc(N2CCCC2)c2ccc(OCc3cncc(-n4ccc5c(N)ncnc54)c3)cc2n1 [Compound I-109]	–	< 1000	< 10	> 1000	–	–
CCc1cc(N2CCNCC2)c2ccc(OCc3cncc(-n4cc([C@@H]5CCCO5)c5c(N)ncnc54)c3)cc2n1 [Compound I-149]	–	1000 to 10000	< 10	–	–	–
CCc1cc(N2CCOCC2)c2ncc(OCc3cncc(-n4cc(-c5ccn(C)n5)c5c(N)ncnc54)c3)cc2n1 [Compound I-150]	–	< 1000	< 10	–	–	–
CCc1cc(NCCOC)c2ncc(OCc3cncc(-n4cc([C@@H]5CCCO5)c5c(N)ncnc54)c3)cc2n1 [Compound I-152]	–	< 1000	< 10	–	–	–
CCc1cc(NC)c2ccc(OCc3cncc(-n4cc(-c5ccn(CCOC)n5)c5c(N)ncnc54)c3)cc2n1 [Compound I-154]	–	< 1000	< 10	–	–	–
CCNc1ccc2ccc(CCc3cncc(-n4cc([C@H]5CCCO5)c5c(N)ncnc54)c3)cc2n1 [Compound I-156]	–	1000 to 10000	< 10	–	–	–
